Laboratory results taken from article PMC9967700, “Metabolism-Guided Optimization of Tryptophanol-Derived Isoindolinone p53 Activators” (Pharmaceuticals, 2023).
Read-outs that look alike come from different tables or passages of the source.

Experiments:
[1] = system: HCT116 p53+/+ cells; assay: Antiproliferative activity, sulforhodamine B (SRB) assay; format: cell-based, human; settings: for S.I. (selectivity index): HCT116 p53−/− versus HCT116 p53+/+; for increase in the antiproliferative activity on bromine insertion at the C-2 indole: versus non-brominated parent isoindolinone
Method: (§1) Tumor cells were cultured in RPMI-1640 with UltraGlutamine (Lonza, VWR), supplemented with 10% fetal bovine serum (FBS; Gibco, Alfagene) and maintained in a humidified incubator at 37 °C with 5% CO2. Cell lines were seeded in 96-well plates at the cells/well density of 5.0 × 10^3.

[2] = system: HCT116 p53−/− cells; assay: as above; format: cell-based, human
Method: as §1

[3] = biological target: T1, wt p53 core domain (DNA Binding Domain; p53DBD; residues 94–312) (Homo sapiens, UniProt P04637); assay: Differential scanning fluorimetry (DSF) thermostability; settings: 13d 2.5 mM, MQ 2 mM; for Tm of the wt p53DBD: 5% DMSO, mean ± SD, three assays
T1 construct: residues 94–312; host or cells: E. coli BL21 (DE3)-[pLys-S]
Method: Expression of wt p53 core domain. The wt p53DBD was expressed in E. coli BL21 (DE3)-[pLys-S] in fusion with an N-terminal 21-residue tag containing the hexa-histidyl peptide (His6) and the thrombin recognition sequence, using the pET15b-based expression construct.
For protein expression 10 mL of an overnight (ON) culture was used to inoculate 1 L of LB medium supplemented with 1 mL of ampicillin 100 mg/mL and 1mL of zinc sulphate 100 mM. Culture medium was incubated at 37 °C, 140 rpm till an OD600nm of ~0.5. Protein expression was then induced by adding 0.5 mL of isopropyl β-D-1-thiogalactopyranoside (IPTG) 1M (Cfinal = 0.5 mM) and bacterial growth at 27 °C, 120 rpm ON. E. coli cells were pelleted by centrifugation for 10 min, 4000 rpm, at 4 °C. The cellular pellet was resuspended in 10 mL of Lysis buffer (Sodium phosphate 50 mM; NaCl 300 mM; glycerol 10%, pH 7.4) supplemented with 1mg/mL Lysozyme (Biochemica Applichem Panreac), 1 mM of phenylmethanesulfonyl fluoride (PMSF) (Merck), 5 µg of DNAse I (Panreac applichem) and 0.8% of Triton X-100 (Merck). After a first step of chemical lysis (30 min incubation, at 4 °C), cells were further disrupted by four cycles of sonication, at 4 °C, during 60 s at 50% duty free cycle on a Vibra Cell (Media Cibernetics). The lysate was subsequently cleared by centrifugation at 10,000 rpm, 40 min, at 4 °C and the supernatant containing the soluble proteins were collected.
Purification of human wt p53DBD and His6-tag removal. Immobilized Metal Affinity Chromatography (IMAC) was performed to purify the wt p53DBD using a nickel-nitrilotriacetic acid (Ni-NTA) agarose resin (QIAGEN). Briefly, 1 mL of Ni^2+ resin was pre-equilibrated using MilliQ water (3 × 1 mL) and Lysis buffer containing 10 mM imidazole (3 × 1 mL). The soluble fraction of cellular lysate was supplemented with 6.8 µL of β-mercaptoethanol and 33.2 µL of imidazole 3 M to obtain the final concentrations of […] and 10 mM, respectively. The lysate was added to the pre-equilibrated resin and protein binding was performed by incubation on an orbital shaker for one hour at 4 °C. The suspension was added to a 9 cm polypropylene conical column (Poly-Prep columns; BioRad) and protein purification was performed by gravity flow with an imidazole gradient consisting of three washing steps (2 × 5 mL of Lysis buffer, 20 mM imidazole; 2 × 5 mL of Lysis buffer, 50 mM imidazole; and 1 × 2.5 mL Lysis buffer, 75 mM imidazole) and an elution step with 5 × 500 µL of Lysis buffer, 250 mM imidazole. Protein eluted fractions were assessed by SDS-PAGE and Coomassie staining. Size exclusion chromatography was performed on the pooled protein eluted fractions, using an AKTA prime plus system (GE Healthcare) equipped with a UV detector (280 nm), a HiLoad 16/60, Superdex 200 prep grade column (GE Healthcare) and SEC buffer (25 mM potassium phosphate buffer, 150 mM NaCl, pH 7.5). The fractions corresponding to the wt p53DBD monomers were collected and treated with thrombin (8 units of thrombin/mg wt p53DBD). The thrombin cleavage was conducted for 18 h at rt at pH 7.4 in the assay buffer recommended by the supplier. Before and after digestion protein concentration was determined through Bradford method.
Thermostability of wt p53DBD core domain assessed by differential scanning fluorimetry (DSF). An amount of 5 μg of thrombin-cleaved wt p53DBD was incubated with testing compounds (2.5 mM) in 25 mM potassium phosphate buffer and 150 mM NaCl, pH 7.5 in a final volume of 50 µL containing 2 µL of 1 mM DTT or 1 mM TCEP to promote p53 core domain redox control, and Sypro Orange at 2.5x final concentration. The fluorescence was assessed on a C1000 Touch thermal cycler equipped with a CFX96 optical reaction module (BioRad) and the FRET channel (λexc 450–490 nm and λem 560–580 nm). Temperature was ramped from 20 to 90 °C with a rate of 0.2 °C/12 sec. The Tm values were calculated using Origin 8 Software. […]

[4] = Homo sapiens, HCT-116, 48 h treatment, mean ± SEM of 3–5 independent experiments, read-out: HCT116 p53+/+ GI50
[5] = Homo sapiens, HCT-116, 48 h, 48 h treatment, mean ± SEM of 3–5 independent experiments, read-out: HCT116 p53−/− GI50
[6] = Homo sapiens, HCT-116, 48 h treatment, mean ± SEM of 5 independent experiments, read-out: HCT116 p53+/+ GI50
[7] = Homo sapiens, HCT-116, 48 h, 48 h treatment, mean ± SEM of 5 independent experiments, read-out: HCT116 p53−/− GI50

T1 sequence (P04637 94-312): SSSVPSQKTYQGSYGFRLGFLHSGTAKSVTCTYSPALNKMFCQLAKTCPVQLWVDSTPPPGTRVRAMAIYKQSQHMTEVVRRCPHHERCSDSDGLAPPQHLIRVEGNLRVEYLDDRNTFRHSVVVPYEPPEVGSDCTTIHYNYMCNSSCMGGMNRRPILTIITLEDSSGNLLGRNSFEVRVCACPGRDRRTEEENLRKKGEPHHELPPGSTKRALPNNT

| SMILES | GI50 [1, 4] [µM] | GI50 [2, 5] [µM] | S.I. (selectivity index) [1] | also measured |
| --- | --- | --- | --- | --- |
| O=C1c2ccccc2[C@@]2(c3ccccc3)OC[C@H](Cc3c(Br)[nH]c4ccccc34)N12 [Compound 13a, (3S, 9bR)-3-((2-bromo-1H-indol-3-yl)methyl)-9b-phenyl-2,3-dihydrooxazolo[2,3-a]isoindol-5(9bH)-one] | 14.6 ± 0.4 | 10.5 ± 2.6 | 0.7 |  |
| O=C1c2ccccc2[C@@]2(c3ccc(Cl)c([N+](=O)[O-])c3)OC[C@H](Cc3c(Br)[nH]c4ccccc34)N12 [Compound 13i, (3S, 9bR)-3-((2-bromo-1H-indol-3-yl)methyl)-9b-(4-chloro-3-nitrophenyl)-2,3-dihydrooxazolo[2,3-a]isoindol-5(9bH)-one] | 23.3 ± 0.9 | 22.2 ± 1.2 | 1.0 |  |
| CCn1c(Br)c(C[C@H]2CO[C@]3(c4ccccc4)c4ccccc4C(=O)N23)c2ccccc21 [Compound 13j, (3S, 9bR)-3-((2-bromo-1-ethyl-1H-indol-3-yl)methyl)-9b-phenyl-2,3-dihydrooxazolo[2,3-a]isoindol-5(9bH)-one] | 13 ± 1.01 | 16 ± 2 | 1.2 |  |
| CC(=O)n1c(Br)c(C[C@H]2CO[C@]3(c4ccccc4)c4ccccc4C(=O)N23)c2ccccc21 [Compound 13m, (3S, 9bR)-3-((1-acetyl-2-bromo-1H-indol-3-yl)methyl)-9b-phenyl-2,3-dihydrooxazolo[2,3-a]isoindol-5(9bH)-one] | 13.05 ± 0.05 | 22.5 ± 2.5 | 1.7 |  |
| CS(=O)(=O)n1c(Br)c(C[C@H]2CO[C@]3(c4ccccc4)c4ccccc4C(=O)N23)c2ccccc21 [Compound 13n, (3S, 9bR)-3-((2-bromo-1-(methylsulfonyl)-1H-indol-3-yl)methyl)-9b-phenyl-2,3-dihydrooxazolo[2,3-a]isoindol-5(9bH)-one] | 12.5 ± 0.5 | 13.5 ± 0.5 | 1.1 |  |
| Cc1ccc(S(=O)(=O)n2c(Br)c(C[C@H]3CO[C@]4(c5ccccc5)c5ccccc5C(=O)N34)c3ccccc32)cc1 [Compound 13o, (3S, 9bR)-3-((2-bromo-1-tosyl-1H-indol-3-yl)methyl)-9b-phenyl-2,3-dihydrooxazolo[2,3-a]isoindol-5(9bH)-one] | 34 ± 4 | 20.4 ± 1.15 | 0.6 | less active derivative compared with SLMP53-2 (7) ([1]; HCT116 p53+/+): 4.0 fold |
| C=C1C(=O)C2CCN1CC2 [MQ, Methylene quinuclidinone, reference compound] |  |  |  | ΔTm of the wt p53DBD ([3]; DTT 1 mM): 2.28 °C; Tm of the wt p53DBD ([3]; DTT (1 mM)): 42.22 ± 0.30 °C; ΔTm of the wt p53DBD ([3]; TCEP 1 mM): 2.11 °C; Tm of the wt p53DBD ([3]; TCEP (1 mM)): 43.27 ± 1.15 °C |
| C[C@]12OC[C@H](C[C@@H]3C(=O)Nc4ccccc43)N1C(=O)c1ccccc12 [SLMP53-1_M3a, (3S,9bR)-9b-methyl-3-(((S)-2-oxoindolin-3-yl)methyl)-2,3-dihydrooxazolo[2,3-a]isoindol-5(9bH)-one] |  |  |  | GI50 [1, 6]: > 50 µM; GI50 [2, 7]: > 50 µM |
| C[C@]12OC[C@H](C[C@H]3C(=O)Nc4ccccc43)N1C(=O)c1ccccc12 [SLMP53-1_M3b, (3S,9bR)-9b-methyl-3-(((R)-2-oxoindolin-3-yl)methyl)-2,3-dihydrooxazolo[2,3-a]isoindol-5(9bH)-one] |  |  |  | GI50 [1, 6]: > 50 µM; GI50 [2, 7]: > 50 µM |
| COc1ccc(C2=N[C@@H](c3ccc(Cl)cc3)[C@@H](c3ccc(Cl)cc3)N2C(=O)N2CCNC(=O)C2)c(OC(C)C)c1 [nutlin-3a, reference compound] |  |  |  | GI50 ([1]; control of the SRB assay, 48 h, read-out: GI50 in HCT116 p53+/+): 3.2 ± 1 µM; GI50 ([2]; control of the SRB assay, 48 h, read-out: GI50 in HCT116 p53−/−): 24 ± 0.7 µM |

More lines, main results first:

| GI50 [1, 4] [µM] | GI50 [2, 5] [µM] | SMILES | S.I. (selectivity index) [1] | also measured |
| --- | --- | --- | --- | --- |
| 31.1 ± 4 | 25.4 ± 1.2 | CCCn1c(Br)c(C[C@@H]2CO[C@@]3(c4ccccc4)c4ccccc4C(=O)N23)c2ccccc21 [13d′, (3R, 9bS)-3-((2-bromo-1-propyl-1H-indol-3-yl)methyl)-9b-phenyl-2,3-dihydrooxazolo[2,3-a]isoindol-5(9bH)-one] |  |  |
| 25.6 ± 1.4 | 10.8 ± 2 | Cn1c(Br)c(C[C@H]2CO[C@]3(c4ccccc4)c4ccccc4C(=O)N23)c2ccccc21 [Compound 13c, (3S, 9bR)-3-((2-bromo-1-methyl-1H-indol-3-yl)methyl)-9b-phenyl-2,3-dihydrooxazolo[2,3-a]isoindol-5(9bH)-one] | 0.4 |  |
| 6.95 ± 0.6 | 6.7 ± 1.6 | O=C1c2ccccc2[C@@]2(c3ccc(F)cc3)OC[C@H](Cc3c(Br)[nH]c4ccccc34)N12 [Compound 13g, (3S, 9bR)-3-((2-bromo-1H-indol-3-yl)methyl)-9b-(4-fluorophenyl)-2,3-dihydrooxazolo[2,3-a]isoindol-5(9bH)-one] | 1.0 | increase in the antiproliferative activity on bromine insertion at the C-2 indole [1]: 1.2 fold |
| 5.8 ± 0.3 | 5.8 ± 0.4 | O=C1c2ccccc2[C@@]2(c3ccc(Cl)cc3)OC[C@H](Cc3c(Br)[nH]c4ccccc34)N12 [Compound 13h, (3S, 9bR)-3-((2-bromo-1H-indol-3-yl)methyl)-9b-(4-chlorophenyl)-2,3-dihydrooxazolo[2,3-a]isoindol-5(9bH)-one] | 1.0 | increase in the antiproliferative activity on bromine insertion at the C-2 indole [1]: 1.5 fold |
| 23.2 ± 1.15 | > 50 | O=C1c2ccccc2[C@@]2(c3ccccc3)OC[C@H](Cc3c(Br)n(C(=O)c4ccccc4)c4ccccc34)N12 [Compound 13l, (3S, 9bR)-3-((1-benzoyl-2-bromo-1H-indol-3-yl)methyl)-9b-phenyl-2,3-dihydrooxazolo[2,3-a]isoindol-5(9bH)-one] |  |  |
